From patent US20110086767A1, “MUTANTS OF GLYCOSIDE HYDROLASES AND USES THEREOF FOR SYNTHESIZING COMPLEX OLIGOSACCHARIDES AND DISACCHARIDE INTERMEDIATES” (Institut Pasteur, priority 2008, published 2011)

Assays:
[1] = target: Neisseria polysaccharea amylosucrase 1G5A (parent SEQ ID NO: 13) variant F290K (Neisseria polysaccharea, UniProt Q9ZEU2, F298K/G545D); assay: Kinetic parameters towards sucrose donor, variant F290K; type: biochemical; conditions: F290K could not be saturated with sucrose
Procedure: Production and purification of AS variants were performed as previously described (ref. 45). […] The enzymes were desalted by size exclusion chromatography using P6DG columns (GE Healthcare Biosciences) at +4° C. and stored in elution buffer (50 mM Tris-HCl, pH 7.0, 150 mM NaCl) at −80° C. The protein content was determined by micro-Bradford method, using bovine serum albumin as standard (ref. 56).
All assays were performed at 30° C. in 50 mM Tris buffer, pH=7.0. For the acceptor reactions, F290D, F290K and ASNPwt (1G5A) were tested on α-D-GlcpNAc-OAll.
Enzyme assays were carried out in a total volume of 2 mL containing pure enzyme (0.115 mg and 0.106 mg when using ASNPwt and F290K, respectively). Catalytic efficiency (Eff=kcat/KM) of ASNPwt and F290K variant was determined with both sucrose (D=Donor) and α-D-GlcpNAc-OAll (A=Acceptor) as variable substrates. […] For each experiment, the reaction velocity corresponding to the acceptor glucosylation was determined by the formation of α-D-Glcp-(1→4)-α-D-GlcpNAc-OAll (called Vi(Dp2)), corresponding to the kinetics of the reaction of interest.
Initial velocities were fitted to the Michaelis-Menten equation using Sigma-Plot. As saturation was not achieved with the mutant, efficiency was calculated by linear regression analysis of the velocity versus substrate concentration plot. […]

[2] = target: Neisseria polysaccharea amylosucrase 1G5A (parent SEQ ID NO: 13) variant A289P-F290C (Neisseria polysaccharea, UniProt Q9ZEU2, A297P/F298C/G545D); assay: Kinetic parameters towards sucrose donor, double mutant A289P-F290C; type: biochemical; conditions: sucrose donor (0-500 mM); Eadie-Hofstee plot; 30° C., pH 7.0
Procedure: (§1) The double mutants A289P-F290C, A289P-F290I and A289P-F290L were produced and purified, as previously described in Example 1-1. The protein content was determined by the Nanodrop ND-1000 spectrophotometer. These mutants were tested on sucrose alone or supplemented with α-D-GlcpNAc-OAll acceptor, and compared to wtAS and F290K. Assays were performed at 30° C. in 50 mM Tris-HCl buffer, pH=7.0.
(§2) Enzyme assays were carried out in a total volume of 2 mL containing pure enzyme (0.073 mg, 0.153 mg and 0.092 mg when using A289P-F290C, A289P-F2901 and A289P-F290L, respectively).
(§3) Kinetic studies of AS variants were performed in the presence of sucrose (0-500 mM). At regular time intervals (2-5 min), aliquots (200 μL) were removed, heated (95° C., 2 min) and centrifuged (18000 g, 5 min) All the samples were filtered on a 0.22 μm membrane and analyzed using HPLC material previously described. The initial rate of sucrose consumed, corresponding to the initial rate of fructose released, was expressed in mole of fructose released per minute and per gram of enzyme. The kinetic parameters kcat and Km were calculated using Eadie-Hofstee plot.

[3] = target: Neisseria polysaccharea amylosucrase 1G5A (parent SEQ ID NO: 13) variant A289P-F290I (Neisseria polysaccharea, UniProt Q9ZEU2, A297P/F298I/G545D); assay: Kinetic parameters towards sucrose donor, double mutant A289P-F290I; type: biochemical; conditions: sucrose donor (0-500 mM); Eadie-Hofstee plot; 30° C., pH 7.0
Procedure: as §1, §2, §3

[4] = target: Neisseria polysaccharea amylosucrase 1G5A (parent SEQ ID NO: 13) variant A289P-F290L (Neisseria polysaccharea, UniProt Q9ZEU2, A297P/F298L/G545D); assay: Kinetic parameters towards sucrose donor, double mutant A289P-F290L; type: biochemical; conditions: sucrose donor (0-500 mM); Eadie-Hofstee plot; 30° C., pH 7.0
Procedure: as §1, §2, §3

[5] = test system: Neisseria polysaccharea amylosucrase 1G5A, wild type (wtAS, ASNPwt), SEQ ID NO: 13; conditions: sucrose donor, data from ref. 83; cited from earlier work

Structure (SMILES): OC[C@H]1O[C@@](CO)(O[C@H]2O[C@H](CO)[C@@H](O)[C@H](O)[C@H]2O)[C@@H](O)[C@@H]1O [sucrose]
- affinity for sucrose [1]: poor affinity for sucrose
- kcat [2]: 2.8 s⁻¹
- kcat [3]: 1.1 s⁻¹
- kcat [4]: 2.1 s⁻¹
- Km [5]: 50.2 mM
- kcat [5]: 1.3 s⁻¹
